Consider nine molecules from US5360818A, “1,3-dioxane derivatives having protein kinase C inhibitory activity” (Sphinx Pharmaceuticals Corporation, priority 1993, dated 1994).

In assay [1] the test system is MCF-7/ADR adriamycin resistant line of MCF-7 cells. Nature of the assay: Human tumor cell growth inhibition (3H-thymidine incorporation), MCF-7/ADR. The class given is cell-based. The following applies: NCI/ADR-RES, 18 to 24 hrs. The source says: (§1) MCF-7 a human breast tumor cell line and MCF-7/ADR an adriamycin resistant line of MCF-7 cells were obtained from the National Cancer Institute, Frederick, Md. CEM cells (ATCC accession number CCL 119) were obtained from the American Type Culture Collection, Rockville, Md.
(§2) Human tumor cells were trypsinized with 0.05% trypsin (GIBCO), counted with a hemacytometer and seeded at a concentration of 10,000 cells/well in a 96 well microtiter plate. After allowing cells to attach to the surface overnight, the culture medium was aspirated and replaced with 100 μl of fresh medium. Test agents were diluted to determine dose response at 2X final concentration and added in quadruplicate at 100 μl/well to bring the total volume of each well to 200 μl. The microtiter plate was then incubated at 37° C. 5% CO2 overnight for 18 to 24 hrs before ^3 H-thymidine was added at a concentration of 0.5 μCi/well in 50 μl culture medium. The plate was incubated again for 4 hrs under the same conditions as above. Supernatant was then aspirated and 50 μl of 0.05% trypsin (GIBCO) was added to each well.
(§3) Cells were checked microscopically to determine detachment from surfaces, and plates were then harvested with a cell harvester (PHD, Cambridge Technology, Inc.) Filter papers corresponding to wells were placed in scintillation vials and counted to determine the amount of ^3 H-thymidine incorporated by the cells. Test agent response was compared to a positive control of cell wells with culture media only to determine the IC50. IC50 is the concentration of test compound required to inhibit fifty percent of the incorporation of ^3 H-thymidine into proliferating cells not exposed to test agent. Uptake of 3H-thymidine is a standard test for measuring the metabolism of cells. Cells which are actively proliferating take up ^3 H-thymidine whereas cells that are not proliferating take up ^3 H-thymidine at much slower rates or not at all. Test agents that inhibit the uptake of ^3 H-thymidine thus slow the growth of cells.
For orientation: Uptake of a labelled nucleoside into DNA is a usual measure of proliferation.

The target in assay [2] is T1, cAMP dependent protein kinase (PKA) (Bos taurus, UniProt P00517).
T1 construct: no regulatory subunit
Put plainly: cAMP dependent protein kinase (PKA) assay. The assay is classed as biochemical. The note with it: 4.3, 43 and 218 μM; 10 min. The procedure:
Compounds found to be inhibitors of protein kinase C were tested for inhibitory activity against cAMP dependent protein kinase (PKA). This enzyme, like protein kinase C, plays an important role in cell-cell communication and is activated by a second messenger, cAMP. Secondary screening against PKA is useful for ascertaining the selectivity of the compounds of the invention. The catalytic subunit of PKA (Sigma Chemical Company, St. Louis, Mo.) was mixed with buffer before addition of the inhibitor in dimethylsulfoxide (DMSO). Potential inhibitor compounds were added to the assay in dimethylsulfoxide at three concentrations to give final inhibitor concentrations of 4.3, 43 and 218 μM, respectively. The assay was started by the addition of 32P-ATP and the reaction was allowed to proceed for 10 min before stopping with 25% trichloroacetic acid (TCA) and 1.0 mg/ml bovine serum albumin (BSA). Phosphorylated protein was then isolated by filtration and the radioactivity was counted in a beta scintillation counter.

The target of assay [3] is protein kinase C. Put plainly: Protein kinase C inhibition assay (histone H1 phosphorylation). The following applies: rat brain enzyme; histone H1 substrate; 10 min. The assay is classed as biochemical. Here is the method: A protein kinase C (PKC) assay is designed to duplicate the in vivo conditions required for protein kinase C function. Therefore, pH, salt and cofactor concentrations are similar to physiologic levels. A lysine rich histone, H1, was used in the assay as the phosphorylation acceptor-proteinbecause it is readily available and serves as a good substrate for protein kinase C. Enzyme was prepared from rat brain and purified to apparent homogeneity as determined by a single band on silver stained SDS-polyacrylamide.
In the screening assay, phosphatidylserine (PS) and DAG were co-sonicated to form unilamellar and multilamellar vesicles. The concentration of lipids in the assay were suboptimal to maximize the detection potential of the assay for inhibitors. Potential inhibitor compounds were added to the assay in dimethylsulfoxide at three concentrations to give final inhibitor concentrations of 4.3, 43 and 218 μM, respectively. The assay was started with the addition of enzyme and stopped after 10 min by the addition of 25% trichloroacetic acid (TCA) and 1.0 mg/ml bovine serum albumin (BSA). The radioactive histone product was retained and washed on glass fiber filters that allow the unreacted ^32 p-ATP to pass through. The amount of phosphorylation was determined by the radioactivity measured in a scintillation counter. Controls were included in every assay to measure background activity in the absence of enzyme, activity in the absence of lipids, and the maximum enzyme activity with saturating levels of the activator lipids.
Results of the protein kinase C assay are shown in Table 3 in the column labeled PKC. Results are shown as IC50, which is the concentration of test compound needed to inhibit 50% of the protein kinase C activity as compared with levels of protein kinase C activity in controls.

The subject of assay [4] is PMA-stimulated neutrophils. Put plainly: Neutrophil superoxide anion release assay. The class given is cell-based. The following applies: Homo sapiens, 0.5 h, 37° C., 30 minutes, cytochrome c reduction. Here is the method:
Neutrophils were isolated form whole blood collected from human volunteers. All reagent materials are obtained from Sigma Chemical Company with the exception of isotonic saline (Travenol Laboratories, Inc., Deerfield, Ill.) and lymphocyte separation medium (Organon Teknika, Durham, N.C.).
Whole blood was drawn and mixed with sodium heparin to a final concentration of 10 units/ml to prevent clotting. An equal volume of 3.0 % dextran in isotonic saline was added, mixed, and allowed to settle for 30 minutes to bind red blood cells (RBC). Supernatant was removed, underlayered with lymphocyte separation medium and centrifuged for 40 min at 400 xg in a centrifuge (Beckman GPR, Norcross, Ga.). The pellet was alternately taken up in 0.2% and 1.6% NaCl to lyse RBCs before washing with Hank's Balanced Salt Solution (HBSS). […]
The neutrophil cell concentration was adjusted to 2×10^6 cells/ml with HBSS before adding 0.8 ml cells to 12×75 mm polypropylene test tubes (Fisher Scientific). […] Optical density (OD) of cytochrome c was read in a spectrophotometer (Shimadzu) at 550 nm. […] Reducing cytochrome c increases its absorbance, and the change in OD of cytochrome c is proportional to the amount of […] produced by PMA stimulation. […] Inhibition is expressed as IC50 μM and is the amount of test compound that will inhibit fifty percent of the PMA-stimulated respiratory outburst, i.e. […] production.

The test system of assay [5] is MCF-7 human breast tumor cell line. Nature of the assay: Human tumor cell growth inhibition (3H-thymidine incorporation), MCF-7. The assay is classed as cell-based. The following applies: MCF7, 18 to 24 hrs.
Excerpt: as §1, §2, §3

Assay [6] relates to keratinocytes (NHEK cells). Put plainly: Human keratinocyte inhibition (3H-thymidine incorporation). The class given is cell-based.
Excerpt: as §3
Proliferating keratinocytes (NHEK cells purchased from Clonetics, Inc., San Diego, Calif.) in second passage were grown in Keratinocyte Growth Medium (KGM) (Clonetics, Inc.) Cells were trypsinized (0.025% trypsin, Clonetics), counted with a hemacytometer (Scientific Products), and seeded at a concentration of 2,500 cells/well in a 96 well microtiter plate. After allowing cells to attach to the surface overnight, the culture medium was aspirated and replaced with 100 μl of fresh KGM. Test agents were evaluated and IC50 's were determined according to the ^3 H-thymidine incorporation procedures described as in Example 18. IC50 is the concentration of test compound required to inhibit fifty percent of the incorporation of ^3 H-thymidine into proliferating cells not exposed to test agent.

Take `CCCCCCCCCCCCCCC[C@@H]1OC(C)(C)OC[C@H]1N` (relative stereo) [Compound 5, Erythro-2,2-dimethyl-5-amino-4-pentadecyl-1,3-dioxane]: the IC50 (usually the concentration that inhibits the measured activity by half) in assay [1] is 6.6 µM; in assay [3] it was 130 µM; in assay [4], 13.1 µM; in assay [5] it was 7.7 µM. Further, the “inhibitory activity against cAMP dependent protein kinase (PKA)” value (shortened to “inhibitory activity”) in assay [2] was “no effect on PKA activity”.

`CCCCCCCCCCCCCCC[C@@H]1OC(C)(C)OC[C@@H]1N` (relative stereo) [Compound 6, 2,2-Dimethyl-5-amino-4-pentadecyl-1,3-dioxane]: the IC50 in assay [1] was 5.5 µM; in assay [6], 4.7 µM; in assay [3] it was 120 µM; in assay [5] it was 6 µM. The “inhibitory activity” value in assay [2] is “no effect on PKA activity”.

`CCCCCCCCCCCCCCC[C@@H]1OC(C)(C)OC[C@H]1NC(C)=N` (relative stereo) [Compound 10, Erythro-5-Acetamidino-2,2-dimethyl-4-pentadecyl-1,3-dioxane]: in assay [2], the “inhibitory activity” value is reported as “no effect on PKA activity”. Besides, the results for the 50% inhibitory concentration (IC50) in assay [3] and in assay [4] were 29 µM and 1.52 µM, respectively.

Molecule `CCCCCCCCCCCCCCCC(O)C(CO)[N+](=O)[O-]` (stereo not drawn) [Compound 3, Threo/erythro-2-Nitro-1,3-octadecanediol] showed a concentration for half-maximal inhibition (IC50) in assay [6] of 6.5 µM.

For the molecule `CCCCCCCCCCCCCCC[C@H](O)[C@H](CO)NC(=O)OC(C)(C)C` [Compound 11, Tert-Butyl (1S, 2S)-N-[2-hydroxy-1-(hydroxymethyl)heptadecyl]carbamate], the figures for the IC50 in assay [6] and in assay [5] were 0.8 µM and 3.2 µM, respectively.

In the case of `CCCCCCCCCCCCCCC[C@@H]1OC(C)(C)OC[C@@H]1N` [Compound 13, Threo-(2S, 3S) -5-Amino-2,2-dimethyl-4-pentadecyl-1,3-dioxane], the figures for the IC50 in assay [1], in assay [3] and in assay [5] were 6.3 µM, 121 µM and 5.1 µM, respectively. In addition, the “inhibitory activity” value in assay [2] is reported as “no effect on PKA activity”.

With `CCCCCCCCCCCCCCC[C@@H]1OC(C)OC[C@@H]1N` (stereo partly drawn) [Compound 18, Threo-5-Amino-2-methyl-4-pentadecyl-1,3-dioxane], the “inhibitory activity” value in assay [2] was “no effect on PKA activity”. The molecule further came in with a half-inhibitory concentration (IC50) in assay [3] of 64 µM.

`CCCCCCCCCCCCCCC[C@@H]1OC(c2ccccc2)OC[C@@H]1N` (stereo partly drawn) [Compound 19, Threo-5-Amino-2-phenyl-4-pentadecyl-1,3-dioxane]: the “inhibitory activity” value in assay [2] was “no effect on PKA activity”. In addition, the IC50 in assay [3] is 182 µM.

In assay [3], `CCCCCCCCCCCCCCCC1OCOCC1N` (stereo not shown) [Compound 24] gave an IC50 of 83 µM.
